The experiment deals with T1, catalytic domain of human Bub1 (amino acids 704-1085) (Homo sapiens, UniProt O43683).
T1 construct: catalytic domain of human Bub1 (amino acids 704-1085); His6 (N); made in house; host or cells: Hi5 insect cells
Put plainly: Bub1 kinase assay (TR-FRET). The format is biochemical. Conditions: TR-FRET; ATP 10 μM, peptide substrate 1 μM; 60 min at 22° C.; average or median if tested more than once; read-out: Inhibition of Bub1 kinase IC50. An outline of the steps:
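Eleven concentrations (0.1 nM–20 μM, duplicate) fitted by 4-parameter logistic for IC50. Read-out: EDTA-stopped TR-FRET (665/620 nm) detecting anti-phosphoserine binding to biotin-peptide (1 μM). Reaction used 10 μM ATP, 60 min at 22 °C, after 15 min compound preincubation with His-tagged human Bub1 704-1085.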
In general terms: In TR-FRET formats the signal depends on donor and acceptor labels being close together.

The IC50 is the midpoint of a concentration-inhibition curve.

T1 sequence (O43683 704-1085): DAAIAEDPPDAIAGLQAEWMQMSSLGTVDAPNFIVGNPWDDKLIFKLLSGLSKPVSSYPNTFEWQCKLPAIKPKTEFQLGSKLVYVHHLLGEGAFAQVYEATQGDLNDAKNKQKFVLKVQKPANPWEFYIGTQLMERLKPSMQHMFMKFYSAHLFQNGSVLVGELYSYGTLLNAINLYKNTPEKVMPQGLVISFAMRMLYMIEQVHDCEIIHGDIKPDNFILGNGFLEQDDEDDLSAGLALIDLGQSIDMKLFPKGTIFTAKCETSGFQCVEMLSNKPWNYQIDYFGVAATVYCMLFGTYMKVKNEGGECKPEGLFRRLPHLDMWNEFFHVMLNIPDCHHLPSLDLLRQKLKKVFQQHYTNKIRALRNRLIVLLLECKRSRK

As for `O=C1CNCc2[nH]c(-c3ccnc(NC(=O)[C@@H]4C[C@H]4F)c3)c(Nc3ccccc3)c21` (relative stereo) [Example 142, rel-(1S,2R)—N-[4-(3-Anilino-4-oxo-4,5,6,7-tetrahydro-1H-pyrrolo[2,3-c]pyridin-2-yl)pyridin-2-yl]-2-fluorocyclopropanecarboxamide], the half-maximal inhibitory concentration (IC50) worked out at 76 nM.
The value for `O=C1CN(C(=O)N2CCCC2)Cc2[nH]c(-c3ccncc3)c(Nc3ccccc3)c21` [Example 92, 3-(phenylamino)-2-(pyridin-4-yl)-6-(pyrrolidin-1-ylcarbonyl)-1,5,6,7-tetrahydro-4H-pyrrolo[2,3-c]pyridin-4-one] was 4 nM.
The same measure for `CC(=O)Nc1cc(-c2[nH]c3c(c2Nc2ccc(F)cc2)C(=O)CN(C(=O)OC(C)(C)C)C3)ccn1` [Example 297, tert-Butyl 2-(2-acetamidopyridin-4-yl)-3-[(4-fluorophenyl)amino]-4-oxo-1,4,5,7-tetrahydro-6H-pyrrolo[2,3-c]pyridine-6-carboxylate]: 55 nM.
The same measure for `CC(=O)Nc1cc(-c2[nH]c3c(c2Nc2ccccc2)C(=O)CN(C(=O)CCC(C)(C)C)C3)ccn1` [Example 179, N-{4-[3-Anilino-6-(4,4-dimethylpentanoyl)-4-oxo-4,5,6,7-tetrahydro-1H-pyrrolo[2,3-c]pyridin-2-yl]pyridin-2-yl}acetamide]: 63 nM.
Turning to `COC(=O)N1CC(=O)c2c([nH]c(-c3ccnc(NC(C)=O)c3)c2Nc2ccc(F)cc2)C1` [Example 314, Methyl 2-[2-(acetylamino)pyridin-4-yl]-3-[(4-fluorophenyl)amino]-4-oxo-1,4,5,7-tetrahydro-6H-pyrrolo[2,3-c]pyridine-6-carboxylate], the 50% inhibitory concentration (IC50) was 8 nM.
On to `CS(=O)(=O)N1CC(=O)c2c([nH]c(-c3ccnc(NC(=O)C4(F)CC4)c3)c2Nc2ccccc2)C1` [Example 150, N-{4-[3-Anilino-6(methylsulfonyl)-4-4-oxo-4,5,6,7-tetrahydro-1H-pyrrolo[2,3-c]pyridin-2-yl]pyridin-2-yl}-1-fluorocyclopropanecarboxamide], for which the concentration for half-maximal inhibition (IC50) came to 5 nM.
On to `O=C1CNCc2[nH]c(-c3ccncc3)c(Nc3ccccc3)c21` [Example 14], for which the IC50 was found to be 47 nM.
The same measure for `CC(C)(C)COC(=O)N1CC(=O)c2c([nH]c(-c3ccncc3)c2Nc2ccccc2)C1` [Example 78, 2,2-Dimethylpropyl 4-oxo-3-(phenylamino)-2-(pyridin-4-yl)-1,4,5,7-tetrahydro-6H-pyrrolo[2,3-c]pyridine-6-carboxylate]: 73 nM.
As to `O=C1CN(S(=O)(=O)c2cnc[nH]2)Cc2[nH]c(-c3ccnc(NC(=O)C4(F)CC4)c3)c(Nc3ccccc3)c21` [Example 165, N-{4-[3-Anilino-6-(1H-imidazol-5-ylsulfonyl)-4-oxo-4,5,6,7-tetrahydro-1H-pyrrolo[2,3-c]pyridin-2-yl]pyridin-2-yl}-1-fluorocyclopropanecarboxamide], the IC50 came out at 14 nM.
Take `O=C1COCc2[nH]c(-c3ccnc(NC(=O)C4CC4)c3)c(Nc3ccccc3)c21` [Example 35, N-{4-[4-Oxo-3-(phenylamino)-1,4,5,7-tetrahydropyrano[3,4-b]pyrrol-2-yl]pyridin-2-yl}cyclopropanecarboxamide]: the IC50 is 55 nM.
The same measure for `CS(=O)(=O)N1CC(=O)c2c([nH]c(-c3ccnc(NC(=O)[C@@H]4C[C@@H]4F)c3)c2Nc2ccccc2)C1` [Example 203]: 2 nM.
In the case of `CC(=O)Nc1cc(-c2[nH]c3c(c2Nc2ccccc2)C(=O)CN(C(=O)C2CC2)C3)ccn1` [Example 30, N-{4-[6-(Cyclopropylcarbonyl)-4-oxo-3-(phenylamino)-4,5,6,7-tetrahydro-1H-pyrrolo[2,3-c]pyridin-2-yl]pyridin-2-yl}acetamide], the half-inhibitory concentration (IC50) was 7 nM.
Regarding `COc1cc(C(=O)Nc2cc(-c3[nH]c4c(c3Nc3ccccc3)C(=O)CN(C(=O)SC(C)(C)C)C4)ccn2)ccc1F` [Example 306, S-tert-butyl 3-anilino-2-{2-[(4-fluoro-3-methoxybenzoyl)amino]pyridin-4-yl}-4-oxo-1,4,5,7-tetrahydro-6H-pyrrolo[2,3-c]pyridine-6-carbothioate], the 50% inhibitory concentration (IC50) was 171 nM.
The value for `COC(=O)N1CC(=O)c2c([nH]c(-c3ccncc3)c2Nc2ccccc2)C1` [Example 18, Methyl 4-oxo-3-(phenylamino)-2-(pyridin-4-yl)-1,4,5,7-tetrahydro-6H-pyrrolo[2,3-c]pyridine-6-carboxylate] was 6 nM; that for `O=C1CNCc2[nH]c(-c3ccncc3Cl)c(Nc3ccccc3)c21` [Example 2, 2-(3-Chloropyridin-4-yl)-3-(phenylamino)-1,5,6,7-tetrahydro-4H-pyrrolo[2,3-c]pyridin-4-one] was 236 nM.
The value for `CC(C)(C)OC(=O)N1CC(=O)c2c([nH]c(-c3ccncc3)c2Nc2ccccc2)C1` [Example 3, tert-Butyl 4-oxo-3-(phenylamino)-2-(pyridin-4-yl)-1,4,5,7-tetrahydro-6H-pyrrolo[2,3-c]pyridine-6-carboxylate] was 10 nM.
The same measure for `COCCOc1cnccc1-c1[nH]c2c(c1Nc1ccccc1)C(=O)CN(S(C)(=O)=O)C2` [Example 234]: 5 nM; for `CC(=O)N1CC(=O)c2c([nH]c(-c3ccncc3OCCN(C)C)c2Nc2ccccc2)C1` [Example 278, 6-Acetyl-2-3-[2-(dimethylamino)ethoxy]pyridin-4-yl-3-(phenylamino)-1,5,6,7-tetrahydro-4H-pyrrolo[2,3-c]pyridin-4-one]: 23 nM.
Regarding `CC(=O)Nc1cc(-c2[nH]c3c(c2Nc2ccccc2)C(=O)CN(S(C)(=O)=O)C3)ccn1` [Example 32, N-{4-[6-(Methylsulfonyl)-4-oxo-3-(phenylamino)-4,5,6,7-tetrahydro-1H-pyrrolo[2,3-c]pyridin-2-yl]pyridin-2-yl}acetamide], the concentration for half-maximal inhibition (IC50) was 4 nM.
For `CN(C)C(=O)N1CC(=O)c2c([nH]c(-c3ccncc3OCC(F)(F)F)c2Nc2ccccc2)C1` [Example 244, N,N-Dimethyl-4-oxo-3-(phenylamino)-2-[3-(2,2,2-trifluoroethoxy)pyridin-4-yl]-1,4,5,7-tetrahydro-6H-pyrrolo[2,3-c]pyridine-6-carboxamide], the concentration for half-maximal inhibition (IC50) was 18 nM.
On to `COc1ccc(C(=O)Nc2cc(-c3[nH]c4c(c3Nc3ccccc3)C(=O)CN(C(=O)N3CCCC3)C4)ccn2)cc1F` [Example 293, 3-Fluoro-4-methoxy-N-4-[4-oxo-3-(phenylamino)-6-(pyrrolidin-1-ylcarbonyl)-4,5,6,7-tetrahydro-1H-pyrrolo[2,3-c]pyridin-2-yl]pyridin-2-ylbenzamide], for which the IC50 worked out at 10 nM.
The same measure for `CNC(=O)N1CC(=O)c2c([nH]c(-c3ccncc3)c2Nc2ccccc2)C1` [Example 81, N-Methyl-4-oxo-3-(phenylamino)-2-(pyridin-4-yl)-1,4,5,7-tetrahydro-6H-pyrrolo[2,3-c]pyridine-6-carboxamide]: 4 nM.
For the molecule `CN(C)S(=O)(=O)N1CC(=O)c2c([nH]c(-c3ccncc3OCC(F)F)c2Nc2ccccc2)C1` [Example 281, 3-Anilino-2-[3-(2,2-difluoroethoxy)pyridin-4-yl]-N,N-dimethyl-4-oxo-1,4,5,7-tetrahydro-6H-pyrrolo[2,3-c]pyridine-6-sulfonamide], the concentration for half-maximal inhibition (IC50) was found to be 10 nM.
The value for `CS(=O)(=O)N1CC(=O)c2c([nH]c(-c3ccncc3OCC(F)(F)F)c2Nc2ccccc2)C1` [Example 233, 6-(Methylsulfonyl)-3-(phenylamino)-2-[3-(2,2,2-trifluoroethoxy)pyridin-4-yl]-1,5,6,7-tetrahydro-4H-pyrrolo[2,3-c]pyridin-4-one] was 36 nM; that for `CNC(=O)N1CC(=O)c2c([nH]c(-c3ccncc3OCCOC)c2Nc2ccccc2)C1` [Example 249] was 5 nM; that for `CC(=O)Nc1cc(-c2[nH]c3c(c2Nc2ccc(C)cc2)C(=O)CN(C(=O)N(C)C)C3)ccn1` [Example 317, 2-[2-(Acetylamino)pyridin-4-yl]-N,N-dimethyl-3-[(4-methylphenyl)amino]-4-oxo-1,4,5,7-tetrahydro-6H-pyrrolo[2,3-c]pyridine-6-carboxamide] was 50 nM.
The value for `O=C(Nc1cc(-c2[nH]c3c(c2Nc2ccccc2)C(=O)CN(S(=O)(=O)c2cnc[nH]2)C3)ccn1)c1ccc(F)cc1` [Example 160, N-{4-[3-Anilino-6-(1H-imidazol-5-ylsulfonyl)-4-oxo-4,5,6,7-tetrahydro-1H-pyrrolo[2,3-c]pyridin-2-yl]pyridin-2-yl}-4-fluorobenzamide] was 4 nM; that for `CC(=O)Nc1cc(-c2[nH]c3c(c2Nc2ccccc2)C(=O)CN(C(=O)c2cnsc2)C3)ccn1` [Example 193, N-{4-[3-Anilino-4-oxo-6-(1,2-thiazol-4-ylcarbonyl)-4,5,6,7-tetrahydro-1H-pyrrolo[2,3-c]pyridin-2-yl]pyridin-2-yl}acetamide] was 19 nM; that for `CC(=O)Nc1cc(-c2[nH]c3c(c2Nc2ccc(C)cc2)C(=O)CN(C(=O)OC(C)(C)C)C3)ccn1` [Example 295, tert-Butyl 2-(2-acetamidopyridin-4-yl)-3-[(4-methylphenyl)amino]-4-oxo-1,4,5,7-tetrahydro-6H-pyrrolo[2,3-c]pyridine-6-carboxylate] was 363 nM.
The value for `CC(=O)Nc1cc(-c2[nH]c3c(c2Nc2ccccc2)C(=O)CN(S(=O)(=O)C2CCOCC2)C3)ccn1` [Example 173, N-{4-[3-Anilino-4-oxo-6-(tetrahydro-2H-pyran-4-ylsulfonyl)-4,5,6,7-tetrahydro-1H-pyrrolo[2,3-c]pyridin-2-yl]pyridin-2-yl}acetamide] was 6 nM.

The values above are taken from patent publication US20200216439A1, “HETERO-1,5,6,7-TETRAHYDRO-4H-INDOL-4-ONES” (BAYER PHARMA AKTIENGESELLSCHAFT, priority 2015, published 2020).
